Data on 2 molecules can be found in patent publication US5232937A, “Derivatives of N-phenylbenzamide with anti-ulcer and anti-allergy” (Rotta Research Laboratorium SpA., priority 1989, dated 1993).

Read-outs that look alike come from different tables or passages of the source.

Series [1] has as its system gastric acid secretion induced by pentagastrin. Kind of series: Anti-secretive activity, gastric acid secretion stimulated with pentagastrin (Lai method, modified). The format is in vivo. As to conditions: Rattus norvegicus, iv, 1 h; I.V.; rats; pentagastrin 30 mcg/kg/h; read-out: ED50, antagonistic activity towards secretion induced by pentagastrin. On the procedure: (§1) The anti-secretive activities were determined in rats with the use of male animals weighing approximately 200 g, anaesthetised with urethane. Gastric secretion was stimulated with pentagastrin, histamine or cabachol.
(§2) After tracheotomy, cannulae were inserted in the aesophagus and the duodenum. These were perfused with a tepid solution (37° C.) which was passed through the stomach at a constant flow rate of 1 ml/minute by means of a peristaltic pump. After stabilisation for 20 minutes, the stimulant, dissolved in a physiological solution, was perfused for 120 minutes at the dose indicated in Table 1 in a volume of 0.95 ml/hour. After 60 minutes of perfusion (base stimulation) the product under test was administered intravenously (I.V.) in a bolus and the perfusion of the stimulant was continued for a further 60 minutes. The acid secretion was recorded continuously as a function of time.
(§3) The activity of the product was evaluated as a percentage reduction in the acid secreted after the administration of the product against the base acidity measured in the first 60 minutes of collection which was in the presence of the stimulant alone.

Series [2] relates to gastric acid secretion induced by histamine. Kind of series: Anti-secretive activity, gastric acid secretion stimulated with histamine (Lai method, modified). The format is in vivo. As to conditions: Rattus norvegicus, iv, 1 h; I.V.; rats; histamine 2.3 mg/kg/h; read-out: ED50, antagonistic activity towards secretion induced by histamine. On the procedure: as §1, §2, §3
The test system of series [3] is gastric acid secretion induced by carbachol. Kind of series: Anti-secretive activity, gastric acid secretion stimulated with carbachol (Lai method, modified). The format is in vivo. The note with it: Rattus norvegicus, iv, 1 h; I.V.; rats; carbachol 30 mcg/kg/h; read-out: ED50, antagonistic activity towards secretion induced by carbachol. How it is done: as §1, §2, §3

Series [4] in a line: Toxicity (LD50 IV in mice). The note with it: mouse, in vivo.
The subject of the next series is ulcer caused by ethanol. Briefly: Cytoprotective activity, ulcer caused by ethanol. The note with it: Rattus norvegicus, iv, 1 h, read-out: ED50, cytoprotective activity, ulcer caused by ethanol. The series is classed as in vivo, rat. On the procedure:
(§4) The drugs under test were administered intravenously 15 minutes before the irritant. […] It consists of the assignment of arbitrary points according to the number and gravity of the lesions in accordance with the following criterion:
(§5) 1 if the length of the necrotic area is 2 mm
(§6) 2 if the length of the necrotic area is between 2 and 4 mm
(§7) 3 if the length of the necrotic area is 4 mm
(§8) 5 if the length of the area is 4 mm with a perforated ulcer.
(§9) A lesion index is then obtained by adding the number of lesions multiplied by their respective points.

For a further series, the system named is ulcer caused by 25% NaCl. Briefly: Cytoprotective activity, ulcer caused by 25% NaCl. The format is in vivo. The note with it: Rattus norvegicus, iv, 1 h, read-out: ED50, cytoprotective activity, ulcer caused by 25% NaCl. On the procedure: as §4, §5, §6, §7, §8, §9
The next series has as its system ulcer caused by stress. Briefly: Cytoprotective activity, ulcer caused by stress (containment). As to conditions: Rattus norvegicus, im, 5 h, read-out: ED50, cytoprotective activity, ulcer caused by stress. The format is in vivo. How it is done:
as §5, §6, §7, §8, §9
Male rats weighing approximately 150 g which had been starved for 24 hours were imprisoned in individual cylindrical cages and immersed up to the xiphoid process in cool water kept thermostatically at 19° C. The compounds were administrated intramuscularly (I.M.) 15 minutes before the start of the test.
5 hours after the start of their containment, the animals were killed, their stomachs were removed and a quantitative evaluation was then carried out as described above.

For series [5], the system named is passive cutaneous anaphylaxis reaction. Briefly: Passive cutaneous anaphylaxis (PCA) in rats, modified Goose and Blair method. The series is classed as in vivo, rat. The note with it: for ED50: Rattus norvegicus, iv, 0.5 h, I.V., rats. On the procedure:
Male rats weighing approximately 400 g were treated with 10 mg/kg of grade V egg albumen dissolved in 1 ml of a physiological solution by I.M. and intraperitoneal (I.P.) routes. With one mg of Freund's complete adjuvent solution. 13 days after sensitisation, the animals were killed under […] anaesthesia, the blood was taken and the serum was kept at -70° C. after its titre of IgE specific to egg albumen had been assayed. On the basis of type, 2 intradermal injections (i.d.) of 0.1 ml of the antiserum, titrated and suitably diluted were given into the shaved backs of 200 g male rats at a time -24h.
The products under test were administered I.V. 20 minutes of the antigen. The animals were killed 30 minutes after the challenge, the skin of the back was turned inside out and the larger and smaller diameters of each blemish were measured. In practice the response of each animal was evaluated as the average of four diameters.

The subject of series [6] is actively-sensitised guinea-pig lung fragments (histamine release). Kind of series: Anaphylaxis in vitro, histamine release from actively sensitised guinea-pig lung fragments (modified Broklehurst method). The format is cell-based. How it is done:
Male guinea pigs weighing approximately 250 g were sensitised with […] of grade V egg albumen dissolved in 1 ml of physiological solution and administered (1 ml/kg) I.P. and subcutaneously (S.C.). After three weeks the animals were killed under ethereal anaesthesia by bleeding. The lungs were removed and immersed in Tyrode solution at 4° C. Homogeneous fragments approximately 2 mm long were cut and divided into test pieces containing approximately 400 mg of tissue and […] of Tyrode. The samples were preincubated at 37° C. for 15 minutes with the compounds under test dissolved in 0.1 of Tyrode and incubated for a further 20 minutes at 37° C. The reaction was stopped by cooling in ice.
0.8 ml of the supernatant liquid were treated with perchloric acid and centrifuged to remove the proteins. The supernatant liquid was then made alkaline with 5N NaOH, the histamine was extracted with n-butanol and, after suitable dilution with n-heptane, was extracted again in dilute HCl.
O-phthalaldehyde was added to the samples and their fluorescence was measured with a fluorimeter at 450 mu after activation at 360 mu.
The histamine concentration in the samples was obtained from a standard straight-line graph in the range 50-800 ng/ml of histamine.

As for `N#Cc1ccc(C(=O)Nc2cc(C(=O)O)cc(C(=O)O)c2)cc1` [Compound 1, N-(3,5-dicarboxy)phenyl-4-cyanobenzamide], the ED50 (usually the dose at which the effect has come halfway, by size or by number of responders) in series [1] is 50 mg/kg; in series [2], 47 mg/kg; in series [3] it was 33 mg/kg; in the series on ulcer caused by ethanol (I.V., rats, 15 minutes before ethanol) it was 45 mg/kg; with ulcer caused by 25% NaCl (I.V., rats, 15 minutes before NaCl) it was 42 mg/kg; in the series on ulcer caused by stress (I.M., rats, 15 minutes before the test), 135 mg/kg. The molecule also gave an ED50 in [5] of 128 mg/kg. The LD50 (usually the dose at which mortality reaches 50%) in [4] (IV in mice) stood at 2400 mg/kg. In addition, the selectivity ratio in [4] (LD50 IV mice versus ED50 of pentagastrin, read-out: toxic dose relative to the antacid-secretion dose) was about 50. Moreover, the “% inhibition of passive cutaneous anaphylaxis” value was found to be 20.0% in series [5] (50 mg/kg I.V.), 37.2% in series [5] (100 mg/kg I.V.) and 58.2% in series [5] (150 mg/kg I.V.).
For `O=C(Nc1ccc(-c2nn[nH]n2)cc1)c1ccc(-c2nn[nH]n2)cc1` [Compound 12, N-°4-(5-tetrazolyl)phenyl-4-(5-tetrazolyl)-benzamide], the ED50 in series [1] turned out to be 26 mg/kg; in series [2], 32 mg/kg; in series [3], 30 mg/kg; with ulcer caused by ethanol it was 3 mg/kg; in the series on ulcer caused by 25% NaCl, 12 mg/kg; in the series with ulcer caused by stress it was 56 mg/kg. The same molecule registered an ED50 in [5] of 30.9 mg/kg. The “% inhibition of passive cutaneous anaphylaxis” value turned out to be 39.0% in [5] (10 mg/kg I.V.), 45.3% in [5] (30 mg/kg I.V.) and 67.6% in [5] (100 mg/kg I.V.). Moreover, the inhibition (in general, how much of the control response was suppressed) at 10 µg/mL in [6] (Cavia porcellus, 10 mcg/ml, read-out: % inhibition of anaphylactic histamine release) turned out to be 22.8%. Besides, the inhibition at 30 µg/mL in [6] (Cavia porcellus, 30 mcg/ml, read-out: % inhibition of anaphylactic histamine release) came to 28.4%. Further, the inhibition at 100 µg/mL in series [6] (Cavia porcellus, 100 mcg/ml, read-out: % inhibition of anaphylactic histamine release) was found to be 56.2%. Besides, the inhibition at 300 µg/mL in [6] (Cavia porcellus, 300 mcg/ml, read-out: % inhibition of anaphylactic histamine release) came out at 65.4%. Moreover, in series [6] (Cavia porcellus, guinea-pig lung fragments in vitro, read-out: EC50, anaphylactic histamine release), the EC50 (usually the concentration giving half of the maximal effect) came to 93 µg/mL. In addition, the “activity in the in vitro anaphylaxis model relative to DSCG” value in series [6] (compared with DSCG) is 10-15 times.
